Test systems include A498; A549; ACHN; DU-145; EKVX; HOP-62; K562; M14; Malme-3M; NCI-H226; NCI-H460; OVCAR-8; RXF 393; SK-MEL-28; SK-OV-3; SR; SW-620; TK-10; UACC-257.
What all share (test): inhibition of tumour cell growth, NCI panel, 48 h

SMILES strings stand for the structures.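 Method: 48-hour compound exposure of cells in 96-well plates, five concentrations, linear interpolation of endpoints. At the GI50, growth is halved.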 The source made the active and inactive calls. Rule as the data show it: active = GI50 up to about 1.1 µM and inactive = higher.

In the case of `Cc1ccc([N+](=O)[O-])c2c(NCCNC(=O)c3cc(C(=O)NCCNc4ccnc5c(C)ccc([N+](=O)[O-])c45)n(C)n3)ccnc12`, the GI50 is > 57.4 µM (inactive) in the experiment with A498; > 57.1 µM (inactive) in the experiment with A549; > 100 µM (inactive) in the experiment with ACHN; > 100 µM (inactive) in the experiment on DU-145; > 100 µM (inactive) with EKVX; > 60 µM (inactive) in the experiment on HOP-62. Further, the GI50 was 40.5 µM (inactive) with K562; > 72.4 µM (inactive) with M14; 55.2 µM (inactive) in the experiment on Malme-3M; > 100 µM (inactive) in the experiment on NCI-H226; > 100 µM (inactive) with NCI-H460; > 72.1 µM (inactive) in the experiment with OVCAR-8. For the same molecule, the GI50 in the experiment with RXF 393 was > 100 µM (inactive); with SK-MEL-28, > 60.5 µM (inactive); in the experiment with SK-OV-3, > 100 µM (inactive); in the experiment with SR, 55.1 µM (inactive); with SW-620 it was 32.9 µM (inactive); in the experiment on TK-10, > 80.7 µM (inactive). In the experiment with UACC-257, the GI50 was > 81.1 µM (inactive).

As for `Cn1c(C(C)(C)OC(=O)Oc2ccccc2)cnc1[N+](=O)[O-]`, the GI50 in the experiment on A498 was > 100 µM (inactive); with A549 it was > 100 µM (inactive); in the experiment on ACHN it was > 100 µM (inactive); in the experiment with DU-145 it was > 100 µM (inactive); in the experiment with EKVX, 42.9 µM (inactive); with HOP-62 it was > 100 µM (inactive). For the same molecule, the GI50 in the experiment on K562 was 59.2 µM (inactive); in the experiment with M14 it was > 100 µM (inactive); in the experiment with Malme-3M, 32.3 µM (inactive); with NCI-H226 it was 36.6 µM (inactive); with NCI-H460, 80.9 µM (inactive); in the experiment on OVCAR-8, 70.6 µM (inactive). For the same molecule, the GI50 with RXF 393 is > 100 µM (inactive); with SK-MEL-28, > 100 µM (inactive); in the experiment with SK-OV-3 it was > 100 µM (inactive); in the experiment on SR, 16.8 µM (inactive); with SW-620 it was 72.8 µM (inactive); in the experiment with TK-10, > 100 µM (inactive). For the same molecule, the GI50 in the experiment with UACC-257 is 36 µM (inactive).

As to `C=CCNC1=C2C[C@@H](C)C[C@@H](OC)[C@@H](OC(=O)CCCN)[C@H](C)/C=C(\C)[C@@H](OC(N)=O)[C@H](OC)/C=C\C=C(/C)C(=O)NC(=CC1=O)C2=O`, the GI50 in the experiment on A498 is 20.5 µM (inactive); with A549, 15.7 µM (inactive); in the experiment on ACHN, 18.8 µM (inactive); with DU-145 it was 13.8 µM (inactive); in the experiment with EKVX it was 18.7 µM (inactive); with HOP-62, 6.24 µM (inactive). In addition, the GI50 in the experiment with K562 was 9.16 µM (inactive); in the experiment with M14 it was 9.38 µM (inactive); in the experiment on Malme-3M it was 11.4 µM (inactive); in the experiment with NCI-H226, 17.1 µM (inactive); with NCI-H460, 14.9 µM (inactive); in the experiment on OVCAR-8, 19.4 µM (inactive). In addition, the GI50 is 20 µM (inactive) in the experiment with RXF 393; 16.3 µM (inactive) in the experiment with SK-MEL-28; 14.6 µM (inactive) in the experiment on SK-OV-3; 6.59 µM (inactive) in the experiment with SR; 19.7 µM (inactive) in the experiment with SW-620; 16.7 µM (inactive) in the experiment on TK-10. The GI50 with UACC-257 was 15.1 µM (inactive).

Regarding `CCOC(=O)CSc1nnc2cc(CN3CCCC3)c(-c3ccc(Cl)cc3)nn12`, the GI50 is > 100 µM (inactive) with A498; > 100 µM (inactive) with A549; > 100 µM (inactive) with ACHN; 71.6 µM (inactive) in the experiment on DU-145; > 100 µM (inactive) in the experiment with EKVX; > 100 µM (inactive) with HOP-62. Moreover, the GI50 in the experiment with K562 was 83.8 µM (inactive); in the experiment with M14, > 100 µM (inactive); with Malme-3M it was > 100 µM (inactive); with NCI-H226, > 100 µM (inactive); with NCI-H460 it was 48.4 µM (inactive); in the experiment with OVCAR-8 it was > 100 µM (inactive). The GI50 with RXF 393 is 86.5 µM (inactive); with SK-MEL-28, > 100 µM (inactive); with SK-OV-3 it was > 100 µM (inactive); in the experiment with SR, 41 µM (inactive); in the experiment with SW-620 it was > 100 µM (inactive); in the experiment on TK-10, > 100 µM (inactive). Moreover, the GI50 with UACC-257 is 91.4 µM (inactive).

Consider `c1cnc2c(c1)ccc1cccnc12`, for which the GI50 is 12.6 µM (inactive) in the experiment with A498; 5.07 µM (inactive) with A549; 2.86 µM (inactive) in the experiment with ACHN; 4.13 µM (inactive) in the experiment with DU-145; 3.91 µM (inactive) with EKVX; 5.83 µM (inactive) in the experiment with HOP-62. In addition, the GI50 with K562 is 3.67 µM (inactive); in the experiment with M14, 4.02 µM (inactive); with Malme-3M, 3.56 µM (inactive); in the experiment on NCI-H226 it was 2.05 µM (inactive); with NCI-H460, 2.74 µM (inactive); in the experiment on OVCAR-8 it was 4.36 µM (inactive). Besides, the GI50 is 4.48 µM (inactive) in the experiment with RXF 393; 4.95 µM (inactive) in the experiment with SK-MEL-28; 11.7 µM (inactive) with SK-OV-3; 1.02 µM (active) in the experiment on SR; 8.69 µM (inactive) in the experiment on SW-620; 3.88 µM (inactive) in the experiment with TK-10. Moreover, the GI50 with UACC-257 is 3.78 µM (inactive).

Consider `COc1cc(COC(=O)N(CC(=O)O)c2ccccc2)c([N+](=O)[O-])cc1OC`, for which the GI50 with A498 is 62.7 µM (inactive); in the experiment with A549, > 100 µM (inactive); in the experiment with ACHN it was > 100 µM (inactive); in the experiment on DU-145, > 100 µM (inactive); with EKVX it was > 100 µM (inactive); with HOP-62, > 100 µM (inactive). Moreover, the GI50 with K562, in the experiment on M14, in the experiment with Malme-3M, in the experiment with NCI-H226, with NCI-H460 and in the experiment with OVCAR-8 was > 100 µM (inactive) in each case. Further, the GI50 with RXF 393, with SK-MEL-28, in the experiment on SK-OV-3, in the experiment with SR, in the experiment with SW-620 and with TK-10 was > 100 µM (inactive) in each case. Moreover, the GI50 in the experiment on UACC-257 was > 100 µM (inactive).

For the molecule `COc1ccc(/C=C/C(=O)c2ccc(OC(=O)/C=C/c3ccccc3)cc2)cc1`, the GI50 with A498 is 25.1 µM (inactive); with A549 it was 29.5 µM (inactive); with ACHN it was 34.6 µM (inactive); in the experiment on DU-145, 11.9 µM (inactive); with EKVX, 29 µM (inactive); in the experiment on HOP-62, 61.1 µM (inactive). Also, the GI50 is 5.93 µM (inactive) with K562; 59.8 µM (inactive) in the experiment on M14; 41 µM (inactive) in the experiment on Malme-3M; 59.3 µM (inactive) in the experiment on NCI-H226; 19.4 µM (inactive) with NCI-H460; 26.7 µM (inactive) in the experiment on OVCAR-8. Besides, the GI50 is 41.7 µM (inactive) in the experiment with RXF 393; 43.6 µM (inactive) in the experiment with SK-MEL-28; 53 µM (inactive) in the experiment with SK-OV-3; 2.28 µM (inactive) in the experiment with SR; 28.1 µM (inactive) in the experiment on SW-620; 44.1 µM (inactive) in the experiment on TK-10. Besides, in the experiment with UACC-257, the GI50 is 37.7 µM (inactive).

These data come from ChEMBL document CHEMBL1201862, “PubChem BioAssay data set” (2004).
